What is called IC50 is the point on the concentration scale where inhibition reaches its midpoint. A higher IC50 goes with a need for much substance.

Results on 1 compound are retold here after PMC5349529, “Antagonizing effects of membrane-acting androgens on the eicosanoid receptor OXER1 in prostate cancer” (Scientific Reports, 2017).

This experiment deals with oxoeicosanoid receptor 1 (OXER1) (Homo sapiens, UniProt Q8TDS5). Kind of experiment: inhibition of forskolin-stimulated cAMP in CHO-K1 cells stably expressing human OXER1 (agonist); also displaces [3H]testosterone from DU-145 membranes. It counts as cell-based.
Sequence of oxoeicosanoid receptor 1 (OXER1) (Q8TDS5 whole entry): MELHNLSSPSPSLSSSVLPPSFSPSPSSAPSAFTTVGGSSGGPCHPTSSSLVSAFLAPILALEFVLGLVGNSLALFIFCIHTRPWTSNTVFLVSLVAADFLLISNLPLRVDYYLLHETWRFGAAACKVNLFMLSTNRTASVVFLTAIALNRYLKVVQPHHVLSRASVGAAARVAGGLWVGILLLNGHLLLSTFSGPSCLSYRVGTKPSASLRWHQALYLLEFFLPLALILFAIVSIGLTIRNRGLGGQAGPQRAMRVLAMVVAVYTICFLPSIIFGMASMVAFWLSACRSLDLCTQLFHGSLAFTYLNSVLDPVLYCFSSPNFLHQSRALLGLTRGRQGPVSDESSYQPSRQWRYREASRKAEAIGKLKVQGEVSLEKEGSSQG

`CCCCC/C=C\C/C=C\C/C=C\C=C\C(=O)CCCC(=O)O` [5-oxoETE, 5-oxo-6E,8Z,11Z,14Z-eicosatetraenoic acid] yielded an IC50 of about 2 nM.
